Data from patent US4965280A, “Antifungal carbinols” (E. I. Du Pont de Nemours and Company, priority 1989, dated 1990).
≈ marks a conversion by molar mass, not a printed value. Like-named read-outs stand apart in the source and are kept apart here.

Key:
[1] = system: Venturia inaequalis; experiment: Example A apple scab; format: in vivo; conditions: read-out: disease control rating, Ex. A
Method: (§1) The test compounds were dissolved in acetone in an amount equal to 6% of the final volume and then suspended at a concentration of 100 or 20 ppm in purified water containing 250 ppm of the surfactant TREM 014 (polyhydric alcohol esters). This suspension was sprayed to the point of run-off on apple seedings.

[2] = system: Cercosporidium personatum; experiment: Example B Peanut Late Leafspot; format: in vivo; conditions: Nothopassalora personata, read-out: disease control rating, Ex. B
Method: as §1, with “peanut seedlings.” for “apple seedings.”

[3] = system: Botrytis cinerea; experiment: Example C bean grey mold; format: in vivo; conditions: for pest or weed control at 100 ppm / pest or weed control at 20 ppm: Botrytis cinerea, 24 h, read-out: disease control rating, Ex. C
Method: as §1, with “broad bean seedlings.” for “apple seedings.”

[4] = system: Erysiphe graminis f. sp. tritici; experiment: Example D wheat powdery mildew; format: in vivo; conditions: Blumeria graminis, 144 h, read-out: disease control rating, Ex. D
Method: as §1, with “wheat seedlings.” for “apple seedings.”

[5] = system: Pyricularia oryzae; experiment: whole plant or invertebrate; format: in vivo; conditions: for pest or weed control at 100 ppm / pest or weed control at 20 ppm: Pyricularia oryzae, 120 h; for pest or weed control at 100 ppm: read-out: disease control rating, Ex. E, 100 PPM; for pest or weed control at 20 ppm: read-out: disease control rating, Ex. E, 20 PPM
[6] = system: Rhizoctonia solani; experiment: Example F rice sheath blight; format: in vivo; conditions: for pest or weed control at 100 ppm / pest or weed control at 20 ppm: Rhizoctonia solani, 144 h, read-out: disease control rating, Ex. F
Method: as §1, with “rice seedlings.” for “apple seedings.”

[7] = system: Puccinia recondita; experiment: Example G wheat leaf rust; format: in vivo; conditions: read-out: disease control rating, Ex. G
[8] = system: Phytophthora infestans; experiment: whole plant or invertebrate; format: in vivo; conditions: for pest or weed control at 100 ppm: Phytophthora infestans, in Solanum lycopersicum, read-out: disease control rating, Ex. H, 100 PPM
[9] = system: Plasmorpara viticola; experiment: Example I grape downy mildew; format: in vivo; conditions: for pest or weed control at 100 ppm: read-out: disease control rating, Ex. I
Method: as §1, with “grape seedlings.” for “apple seedings.”

[10] = system: Pythium aphanadermatum; experiment: Example J cucumber damping off; format: in vivo; design: key to phytotoxicity entry, Ex. J: P: disease control was not measured due to phytoxicity; conditions: 5 kg/ha
Method: […] Seeds and soil were then inoculated with a mixture of sand, cereal and mycelium of the fungus Pythium aphanadermatum, causal agent of cucumber damping off, and incubated in a growth chamber at 30° C. for 14 days. Disease ratings were then made.

[11] = system: Candida albicans ATCC 11651; experiment: In vitro antifungal MIC, microtiter broth dilution; conditions: for MIC: Candida albicans, ATCC11651, 24 h, read-out: MIC values, C. albicans, 30°, 24 hours
Method: In vitro activity (Table 5) is expressed in terms of the minimal inhibitory concentration (MIC) of the test compound which inhibits the growth of yeasts and fungi.
The target organisms, Candida albicans ATCC 11651 and Aspergillus fumigatus ATCC 28214 are standardized, [V. Bezjak, J. Clinical Micro., 21 509-512 (1984)], to a concentration of 10^7 organisms/ml and maintained at -70° until use. Test compounds are solubilized in dimethyl sulfoxide (DMSO) and diluted in Eagle's Minimum Essential Medium (EMEM) broth to achieve a final concentration of 200 μg/ml. Stock solutions of standard antifungal agents are stored at -70° and diluted in EMEM as required.
The in vitro assay utilizes a microtiter broth dilution technique [L. Polonelli and G. Morace, Mycopathologia, 86, 21-28 (1984)] and C. […] The appropriate wells are inoculated with the required organism (C. albicans at 1×10^4 organisms/ml and A. fumigatus at 5×10^5 organisms/ml) and the assay incubated at 30° for 24 hours.

[12] = system: Candida albicans ATCC 11651; experiment: In vivo systemic Candida infection in mice, primary assay; design: species or system Candida albicans; CF-1 female mice; conditions: 150 mg/kg per day; for responders at 150 mg/kg: Candida albicans, read-out: % Survival
Text: The […] activity of test compounds is based on the percent (%) survival of infected animals receiving test or standard agent compared to that in an infected untreated group (Table 6). The in vivo assays are chronic systemic infections lethal to mice within 7 days post infection, [J. Barnes, et al. Lab Investigation, 49 460-467 (1963), and T. Rogers and E. Balish, Infection and Immunity, 14 33-38 (1976)].
Candida albicans ATCC 11651, from a frozen stock culture (10^9 organisms/ml) maintained at -70°, is diluted in saline to 1×10^7 organisms/ml and 0.2 ml inoculated intravenously (caudal vein) into 20.0 gm CF-1 female mice (Charles River).
Test compounds are routinely solubilized in 0.25% (w/v) methylcellulose (Methocel®) but for those compounds difficult to solubilize 10% (w/v) Emulophor® (EL620 GAF Corp.) is used. The standard antifungal agents, amphotericin B (Fungizone®) in water and ketoconazole (Nizoral®) in Methocel®, are administered at 1.0 mg/kg/day and 150 mg/kg/day, respectively.
In a primary assay, mice (10 per group) are infected with C. albicans, and receive test compounds at 50 or 150 mg/kg/day via the subcutaneous route. Animals are dosed with the test compound at 1 and 6 hour post-infection and then once daily for the next three days. Survival of mice in each group is recorded for 21 days.
Compounds which protect ≥70% of the infected animals for 14 days at a dose 150 mg/kg/day or less are viewed as active.

[13] = system: Aspergillus fumigatus ATCC 28214; experiment: In vitro antifungal MIC, microtiter broth dilution; conditions: for MIC: Aspergillus fumigatus, ATCC28214, 24 h, read-out: MIC values, A. fumigatus, 30°, 24 hours

SMILES | pest or weed control at 100 ppm [1] [%] | pest or weed control at 100 ppm [2] [%] | pest or weed control at 100 ppm ([3]; 100 PPM) [%] | pest or weed control at 100 ppm [4] [%] | pest or weed control at 100 ppm [5] [%] | pest or weed control at 100 ppm ([6]; 100 PPM) [%] | pest or weed control at 100 ppm [8] [%] | pest or weed control at 100 ppm [9] [%] | MIC [11] [µg/mL] | responders at 150 mg/kg ([12]; ATCC11651, 168 h, day 7) [%] | responders at 150 mg/kg ([12]; ATCC11651, 336 h, day 14) [%] | responders at 150 mg/kg ([12]; ATCC11651, 504 h, day 21) [%] | MIC [13] [µg/mL] | pest or weed control at 20 ppm [1] [%] | pest or weed control at 20 ppm [2] [%] | pest or weed control at 20 ppm [3] [%] | pest or weed control at 20 ppm [4] [%] | pest or weed control at 20 ppm [5] [%] | pest or weed control at 20 ppm [6] [%] | pest or weed control at 20 ppm [7] [%] | further results
C=C(CN1CC(C)OC(C)C1)C(O)(Cn1cncn1)c1ccc(F)cc1 (centres unmarked) [Example 477] | 95 | 100 | 76 | 100 | 48 | 48 | 0 | 0 | > 100 |  |  |  |  |  |  |  |  |  |  |  | pest or weed control at 100 ppm [7]: 100%; phytotoxicity entry, Ex. J [10]: P
C=C(c1ccccc1C(F)(F)F)C(O)(Cn1cncn1)c1ccc(F)cc1 (centres unmarked) [Example 724] | 100 | 100 | 95 | 100 | 63 | 100 | 0 | 0 | 0.4 (≈ 1.06 µM) | 100 | 90 | 40 | 0.4 (≈ 1.06 µM) |  |  |  |  |  |  |  | pest or weed control at 100 ppm [7]: 100%; pest or weed control at 5000 g/ha ([10]; Pythium, 336 h, read-out: disease control rating, Ex. J): 0%
C=C(c1ccc(C)cc1)C(O)(Cn1cncn1)c1ccc(F)cc1 (centres unmarked) [Example 721] | 73 | 89 | 95 | 94 | 18 | 100 | 0 | 0 | 0.4 (≈ 1.24 µM) | 100 | 30 | 30 | 12.5 (≈ 38.7 µM) |  |  |  |  |  |  |  | pest or weed control at 100 ppm [7]: 100%; phytotoxicity entry, Ex. J [10]: P
C=C(c1ccc(SC)cc1)C(O)(Cn1cncn1)c1ccc(F)cc1F (centres unmarked) [Example 164] |  |  | 84 |  | 15 | 0 | 8 | 0 | 0.03 (≈ 0.0803 µM) | 100 | 80 | 70 | 1.6 (≈ 4.28 µM) | 82 | 100 | 57 | 88 | 5 | 0 | 100 | 
C=C(c1ccc(F)cc1)C(O)(CC)Cn1cncn1 (centres unmarked) [Example 668] |  |  | 76 |  | 1 | 0 | 22 | 31 | 0.4 (≈ 1.53 µM) | 70 | 10 | 0 | 50 (≈ 191 µM) | 65 | 17 | 31 | 31 | 1 | 0 | 100 | 
C=C(c1cccc(Cl)c1)C(O)(Cn1cncn1)c1ccccc1F (centres unmarked) [Example 47] |  |  | 89 |  | 31 | 47 | 0 | 25 | 0.03 (≈ 0.0873 µM) | 90 | 80 | 30 | 1.6 (≈ 4.65 µM) | 93 | 100 | 26 | 98 | 15 | 0 | 100 | 
C=C(c1ccc(F)cc1)C(O)(Cn1cncn1)c1ccc(F)cc1 (single isomer, unassigned) [Example 1277a] |  |  |  |  |  |  |  |  |  |  |  |  |  | 58 | 74 | 24 | 95 | 1 | 0 | 100 | % Survival ([12]; day 7): 80%; % Survival ([12]; day 14): 0%; % Survival ([12]; day 21): 0%; disease control rating, Ex. C ([3]; 100 PPM): 36%; disease control rating, Ex. E ([5]; 100 PPM): 1%; disease control rating, Ex. F ([6]; 100 PPM): 52%; disease control rating, Ex. H ([8]; 100 PPM): 8%; disease control rating, Ex. I ([9]; 100 PPM): 31%; MIC values, C. albicans ([11]; 30°, 24 hours): 6.3 µg/mL (≈ 19.2 µM); MIC values, A. fumigatus ([13]; 30°, 24 hours): 100 µg/mL (≈ 305 µM)
C=C(c1ccccc1)C(O)(Cn1cncn1)c1ccccc1Cl (centres unmarked) [Example 596] |  |  | 89 |  | 0 | 0 | 0 | 25 | 0.05 (≈ 0.153 µM) | 70 | 60 | 40 | 0.4 (≈ 1.23 µM) | 91 | 95 | 35 | 94 | 0 | 0 | 100 | 
C=C(c1ccc(SC)cc1)C(O)(Cn1cncn1)c1ccc(F)cc1 (centres unmarked) [Example 163] |  |  | 95 |  | 5 | 0 | 0 | 0 | 0.03 (≈ 0.0844 µM) | 90 | 60 | 40 | 12.5 (≈ 35.2 µM) | 0 | 81 | 58 | 23 | 5 | 0 | 99 | 
